For experiment [1] the following is noted: rats, supplemented vs non-supplemented animals; cited from earlier work.
Experiment [2] can be described thus: Carcass characteristics of steers, Composition versus Monensin (Example 3). The experiment is classed as in vivo. Conditions: Monensin 223 mg/head/day, Composition 500 ppm in total feed, treatments differ P < 0.05. How it is done: The two groups were treated with Monensin (223 mg/head/day) and the Composition (500 ppm in total feed). Monensin is the antibiotic used in the industry as a standard to affect microbial populations in the rumen of the animals. The change in microbial populations in the rumen shifts the fermentation end products, which results in an improvement in the energy efficiency of the animal. By comparing the Composition to the industry standard, the effects due to changes in microbial populations can be deleted. Therefore, if differences were found between Monensin treated animals and the Composition treated animals, those differences would not arise from the antimicrobial effects, as both products inhibit the same type of bacteria (gram positive). The Composition was 40% cashew nut shell liquid, 12% castor oil and 48% expanded vermiculite. Dressing percent is the percentage of the carcass in relation to the total weight of the animal. Carcass quality grade goes from 1 to 9 to indicate, in increasing order, the amount of intramuscular fat. Meats with higher levels of intramuscular fat are more tender and, therefore, more expensive. Also, as the amount of energy found per unit of fat is twice as much as the amount of energy found per unit of carbohydrate and […], meats with more intramuscular fat are more energy dense than […]. […]

Marks after values point to notes of the source that are not given here.

On to `CCCCCCCCCCCCCCCc1cccc(O)c1C(=O)O` [anacardic acid], for which the “effects on feed efficiency” value in experiment [1] is on record as “no differences”.

As for `CC[C@@]1([C@@H]2O[C@@H]([C@H]3O[C@@](O)(CO)[C@H](C)C[C@@H]3C)C[C@@H]2C)CC[C@H]([C@]2(C)CC[C@]3(C[C@H](O)[C@@H](C)[C@@H]([C@@H](C)[C@@H](OC)[C@H](C)C(=O)O)O3)O2)O1` [Monensin], the Carcass quality grade in experiment [2] (grade from 1 to 9, increasing intramuscular fat, steers fed from 322 kg to 617 kg) is given as 3.18^a. Also, the “Dressing percent (percentage of the carcass in relation to the total weight of the animal)” value in experiment [2] (steers fed from 322 kg to 617 kg live weight) is given as 60^a percent.
